Values after ≈ are worked out from the molar mass of the structure shown. Active and inactive are the calls of the source. The calls are words filed in the database; no cut-off is given here.
Columns and labels:
[1] = tested on: Mycolicibacterium smegmatis; assay: Antimicrobial activity against Mycobacterium smegmatis ATCC 607 by agar-dilution streak method; type: functional
[2] = tested on: Salmonella enterica subsp. enterica serovar Gallinarum; assay: Antimicrobial activity against Salmonella gallinarum ATCC 9184 at 100 ug/mL by agar-dilution streak method; type: functional, organism-based
[3] = tested on: Escherichia coli; assay: Antimicrobial activity against Escherichia coli ATCC 9637 at 100 ug/mL by agar-dilution streak method; type: functional, organism-based
[4] = tested on: Candida albicans; assay: Antimicrobial activity against Candida albicans ATCC 10231at 100 ug/mL by agar-dilution streak method; type: functional, organism-based
[5] = tested on: Staphylococcus aureus; assay: Antimicrobial activity against Staphylococcus aureus ATCC 13709 by agar-dilution streak method; type: functional
[6] = tested on: Klebsiella pneumoniae; assay: Antimicrobial activity against Klebsiella pneumoniae ATCC 10031 at 100 ug/mL by agar-dilution streak method; type: functional, organism-based
[7] = tested on: Staphylococcus aureus; assay: Antimicrobial activity against Staphylococcus aureus ATCC 13709 at 100 ug/mL by agar-dilution streak method; type: functional, organism-based
[8] = tested on: Escherichia coli; assay: Antimicrobial activity against Escherichia coli ATCC 9637 by agar-dilution streak method; type: functional
[9] = tested on: Salmonella enterica subsp. enterica serovar Gallinarum; assay: Antimicrobial activity against Salmonella gallinarum ATCC 9184 by agar-dilution streak method; type: functional
[10] = tested on: Klebsiella pneumoniae; assay: Antimicrobial activity against Klebsiella pneumoniae ATCC 10031 by agar-dilution streak method; type: functional

MIC [1] [µg/mL]	MIC [5] [µg/mL]	SMILES	Activity [2]	Activity [3]	Activity [4]	Activity [6]	Activity [7]	MIC [8] [µg/mL]	MIC [9] [µg/mL]	MIC [10] [µg/mL]
6.25 (≈ 20.7 µM)	12.5 (≈ 41.3 µM)	C=C1C[C@@]23CC[C@H]4[C@@](C)(CCC[C@]4(C)C(=O)O)[C@@H]2CCC1C3	inactive	inactive	inactive	inactive	–	–	–	–
6.25 (≈ 20.7 µM)	6.25 (≈ 20.7 µM)	C[C@@]12C[C@@]34CC[C@H]5[C@@](C)(CCC[C@]5(C)C(=O)O)[C@@H]3C[C@H]1[C@H]2C4	inactive	inactive	inactive	inactive	–	–	–	–
25 (≈ 79 µM)	–	C=C1C[C@@]23CC[C@H]4[C@@](C)(CCC[C@@]4(C)C(=O)OC)[C@@H]2CC[C@@H]1C3 [KAURENOIC ACID METHYL ESTER]	inactive	inactive	inactive	inactive	inactive	–	–	–

SMILES	MIC [1] [µg/mL]	MIC [5] [µg/mL]	Activity [2]	Activity [3]	Activity [4]	Activity [6]	Activity [7]	MIC [8] [µg/mL]	MIC [9] [µg/mL]	MIC [10] [µg/mL]
CN[C@@H]1[C@H](O[C@H]2[C@H](O[C@H]3[C@H](O)[C@@H](O)[C@H](N=C(N)N)[C@@H](O)[C@@H]3N=C(N)N)O[C@@H](C)[C@]2(O)C=O)O[C@@H](CO)[C@H](O)[C@H]1O [STREPTOMYCIN]	0.78 (≈ 1.34 µM)	3.1 (≈ 5.33 µM)	–	–	inactive	–	–	12.5 (≈ 21.5 µM)	25 (≈ 43 µM)	1.56 (≈ 2.68 µM)
